According to patent US20170119034A1, “COMPOSITIONS AND METHODS FOR MODIFYING PERCEPTION OF SWEET TASTE” (University of Florida Research Foundation, Inc., priority 2012, published 2017):

Key:
Type in all cases: in vivo, human
[1] = system: texture liking of strawberry fruit (consumer panel); assay: Strawberry consumer panel: bivariate fit to texture liking; settings: bivariate linear fit; X = content of the substance in strawberry fruit, Y = Texture liking
Procedure: (§1) All consumer panels were approved by the University of Florida Institutional Review Board. […] Ages of panelist ranged from 18 to 71, with a median age of 24. Panelists self-classified themselves as 98 White or Caucasian, 11 Black or African-American, 1 Native American, Alaska Native or Aleutian, 41 Asian/Pacific Islander, and 15 Other. […] Fresh, fully-ripe strawberry fruit was removed from overnight 4° C. dark storage and allowed to warm to room temperature prior to sensory analysis. Each panelist was given one to two whole strawberries for evaluation, depending on cultivar availability. Panelist took a bite of each sample, chewed, and swallowed it. Ratings for overall liking and liking for texture were scaled on hedonic general labeled magnitude scale (gLMS) in the context of all pleasure/displeasure experiences. […] Scales were employed to mediate valid comparisons across subjects and sessions.
(§2) Bivariate analysis among individual measurements of samples allowed for linear fit, which includes summary of fit, analysis of variance, t-test, and correlation analysis for density ellipse. Two-way Ward hierarchical cluster analysis of all metabolite concentrations and strawberry samples accomplished in JMP.

[2] = system: strawberry flavor intensity (consumer panel); assay: Strawberry consumer panel: bivariate fit to strawberry flavor intensity; settings: for Parameter Estimates: Estimate: bivariate linear fit, X = content of the substance in strawberry fruit, Y = Flavor Intensity (FI); for relationship to strawberry flavor intensity / sensory perception: in words
Procedure: as §1, §2

[3] = system: perceived sweetness intensity of strawberry fruit (consumer panel); assay: Strawberry consumer panel: multiple regression of volatile concentration against perceived sweetness intensity independent of glucose, fructose or sucrose; settings: for enhancement of perceived intensity of sweetness independent of sugars: in words; for negatively related to sweetness: sugar(s) of which the effect is independent: compounds negatively related to sweetness independent of at least one of the sugars
Procedure: Step-wise multiple regressions of all volatile compounds against perceived intensity of sweetness is performed independent of either glucose, fructose, or sucrose concentration, separately (Table 6).
as §1
Multiple regressions were performed with the “enter” method in SPSS for identification of sweetness enhancing volatiles. Individual volatile compound concentrations were regressed using the “enter” method in SPSS Statistics (IBM Corp, Armonk, N.Y., USA).

| SMILES | Parameter Estimates-fit to Texture Liking: Estimate [1] | Parameter Estimates: Estimate [2] | enhancement of perceived intensity of sweetness independent of sugars [3] | relationship to strawberry flavor intensity / sensory perception [2] | negatively related to sweetness: sugar(s) of which the effect is independent [3] |
| --- | --- | --- | --- | --- | --- |
| CCC(=O)CC [96-22-0] | 0.004596 | 0.05443 |  |  |  |
| C=CC(=O)CC [1629-58-9, 1-penten-3-one] |  |  | mutually independent of all three sugar |  |  |
| CCCCC/C=C/C=O [2548-87-0] | 1.345 | 0.6039 |  |  |  |
| CCCC(=O)OC(C)CCC (stereo not drawn) [60415-61-4, 2-pentanyl butyrate] |  |  | mutually independent of all three sugar |  |  |
| CCCCCCCCC1CCC(=O)O1 (stereo not drawn) [2305-05-7, 5-octyldihydro-2(3H)-furanone] |  |  | mutually independent of all three sugar |  |  |
| CCCC(=O)OCC [105-54-4, ethyl butyrate] |  |  |  | significant positive correlation with flavor intensity |  |
| CCCCCCCC=O [124-13-0] | −0.2865 | 0.3091 |  |  |  |
| O=C(O)CC(O)C(=O)O (stereo not drawn) [Malic] | 0.05905 | 0.001142 |  |  |  |
| CCCOC(C)=O [109-60-4] | −0.5137 | −0.05307 |  |  |  |
| CCCCC(=O)OC [624-24-8] | 0.2596 | −0.1 |  |  |  |
| Cc1cc(C(C)(C)C)c(O)c(C(C)(C)C)c1 [128-37-0] | 0.2009 | 0.1227 |  |  |  |
| CCOC(=O)CC [105-37-3] | −0.01062 | −0.01371 |  |  |  |
| CCCCCO [71-41-0] | 0.3727 | 0.2445 |  |  |  |
| CCC/C=C/CO [928-95-0] | −0.0133 | −0.0006379 |  |  |  |
| CCCCC(=O)C(C)=O [96-04-8] | −0.09953 | 0.01959 |  |  |  |
| CCC/C=C/COC(C)=O [2497-18-9] | −0.02456 | 0.008248 |  |  |  |
| CCCCCCCCOC(=O)CC(C)C [7786-58-5, octyl 3-methylbutanoate] |  |  | show evidence of enhancing perceived sweetness intensity independent of individual sugars |  |  |
| COC(=O)c1ccccc1N [134-20-3] | −4.493 | −0.8484 |  |  |  |
| CC(=O)OCC=C(C)C [1191-16-8, 3-methyl-2-buten-1-yl acetate] |  |  |  |  | exclusively independent of sucrose |
| COC1=C(C)OC(C)C1=O (stereo not drawn) [4077-47-8, 4-methoxy-2,5-dimethyl-3(2H)-furanone] |  |  |  | significant positive correlation with flavor intensity |  |
| CC(=O)OCCC(C)C [123-92-2] | −0.07997 | 0.005816 |  |  |  |
| CCCCC(CC)COC(C)=O (stereo not drawn) [103-09-3] | −1.955 | 0.01965 |  |  |  |
| CCCC(=O)OC [623-42-7] | 6.892e−05 | 0.0008905 |  | significant positive correlation with flavor intensity |  |
| CCCCC=O [110-62-3] | 0.1789 | −0.1249 |  | negatively correlated to flavor |  |
| CSC(C)=O [1534-08-3] | 0.06449 | 1.808 |  |  |  |

| SMILES | Parameter Estimates-fit to Texture Liking: Estimate [1] | Parameter Estimates: Estimate [2] | enhancement of perceived intensity of sweetness independent of sugars [3] | relationship to strawberry flavor intensity / sensory perception [2] | negatively related to sweetness: sugar(s) of which the effect is independent [3] |
| --- | --- | --- | --- | --- | --- |
| CCCC(=O)CC [589-38-8] | 0.4306 | 0.4621 |  |  |  |
| CCCCCCC=O [111-71-7, heptanal] |  |  | show evidence of enhancing perceived sweetness intensity independent of individual sugars |  |  |
| C=CC(C)(O)CC/C=C(\C)CCC=C(C)C (stereo not drawn) [40716-66-3] | 0.01941 | 0.01223 |  |  |  |
| CCCCOC(=O)CC(C)C [109-19-3, butyl 3-methylbutanoate] |  |  | show evidence of enhancing perceived sweetness intensity independent of individual sugars |  |  |
| CC(=O)OCc1ccccc1 [140-11-4] | −0.0849 | 0.02204 |  |  |  |
| CCCCCOC(=O)CCC [540-18-1, pentyl butyrate] |  |  | mutually independent of all three sugar |  |  |
| CCCCCC(=O)OCC [123-66-0] | −0.0003354 | 0.002386 |  | no bearing on sensory perception |  |
| CCCCCCOC(C)=O [142-92-7, hexyl acetate] |  |  | mutually independent of all three sugar |  |  |
| C=C[C@]1(C)CC[C@H](C(C)(C)O)O1 [5989-33-3] | 0.6605 | 0.7378 |  |  |  |
| CCCCCOC(C)=O [628-63-7] | −0.1907 | 0.4892 |  |  |  |
| C=CC(O)CC (stereo not drawn) [616-25-1] | 0.06401 | 0.2097 |  |  |  |
| CC/C=C/C=O [1576-87-0, (E)-pent-2-en-1-al] |  |  |  | enhancing toward flavor intensity |  |
| CC(=O)CC(C)C [108-10-1, 4-Methyl-2-pentanone] |  |  |  |  | mutually independent of glucose and fructose |
| CCCCCCC1CCC(=O)O1 (stereo not drawn) [706-14-9] | 0.01485 | 0.02049 |  |  |  |
| CCCCCCOC(=O)CCC [2639-63-6, hexyl butyrate] |  |  | mutually independent of all three sugar |  |  |
| CCCCC/C=C\C=O [20664-46-4] | −0.04121 | 0.03985 |  |  |  |
| CC=C(C)C(=O)OCC [55514-48-2] | −2.984 | −0.1506 |  |  |  |
| C=C(C)C1CC=C(COC(C)=O)CC1 (stereo not drawn) [15111-96-3] | −0.1056 | −0.2365 |  |  |  |
| O=C(O)CC(O)(CC(=O)O)C(=O)O [Citric] | −0.001831 | 0.01293 |  |  |  |
| CCC(O)C(=O)OC (stereo not drawn) [29674-47-3] | 0.02693 | 0.207 |  |  |  |
| CCC(C)COC(C)=O (stereo not drawn) [624-41-9] | −0.03512 | 0.009696 |  |  |  |
| CCCCCCCCOC(=O)C(C)CC (stereo not drawn) [29811-50-5] | −0.1411 | 0.1055 |  |  |  |
| C/C=C/C(=O)OC [623-43-8] | −0.7133 | −0.101 |  |  |  |
| CCC(C)(C)O [75-85-4] | 0.3219 | 0.1051 |  |  |  |
| CCCCCC=O [66-25-1] | 0.0005099 | 0.0002842 |  | does not have a significant correlation to flavor intensity |  |
